The target of one experiment is T1, succinate dehydrogenase (Botrytis cinerea, UniProt A0A384J5E4+A0A384J8V8+A0A384JHJ5).
T1 construct: succinate-DCPIP reductase assay with KCN
The experiment in a line: Enzyme inhibition: succinate dehydrogenase activity in Botrytis cinerea mitochondria (DCPIP reduction). Format: biochemical. The note with it: concentration required to inhibit the rate of DCPIP reduction by 50%; Botrytis cinerea isolate Nick mitochondria; read-out: I50 (μM conc.). Summed up: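 DCPIP (45 μM) reduction at 600 nm tracked with 17 mM succinate, 1 mM KCN and 50 mM potassium phosphate, pH 7.2. Compounds were added in acetone (final 1% v/v), and Botrytis cinerea isolate Nick mitochondrial fraction initiated the reaction. Rates minus endogenous activity gave percentage inhibition, plotted semilog against concentration to derive I50 (μM).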

The subject of the next experiment is Rhizoctonia solani. The experiment in a line: Rice sheath blight. The format is in vivo. The arrangement: scale not given here. As to conditions: inoculated two days later, rated after 7 days, average of five plants; for Disease Control Rating at 0.02 mg/mL: foliage and soil sprayed with 0.02 mg/mL; for Disease Control Rating at 0.1 mg/mL: foliage and soil sprayed with 0.1 mg/mL; for Disease Control Rating at 0.5 mg/mL: foliage and soil sprayed with 0.5 mg/mL. The method in brief: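 Preventive test: R. solani inoculum on rice grain was applied at the plant base two days after spraying foliage and soil with Compound A (0.5, 0.1 or 0.02 mg/mL, water/acetone/Tween 20). Plants aged 11–15 days stood in flood trays; after 7 days at 25 °C and high humidity, disease control was rated against untreated plants, five plants averaged.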

Experiment [1] relates to Botrytis cinerea. The experiment in a line: Vine grey mold (grape berries). Format: in vivo. As to conditions: for pest or weed control at 50 ppm: read-out: % DISEASE CONTROL 50 ppm; for pest or weed control at 200 ppm: read-out: % DISEASE CONTROL 200 ppm. Summed up: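 Preventive berry test: compound at 50 or 200 ppm (acetone/water, 0.05% Tween 20) applied one day before inoculation with 10^6 spores/mL Botrytis conidia. After 7-10 days at 20 °C under 12 h light, infected surface area rated; disease control expressed as percent reduction from control mean; repeated-test values averaged.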

For experiment [2], the system named is Botrytis cinerea Mitochondria. The note with it: 1 μM concentration; cited from earlier work.
Experiment [3] relates to Botrytis cinerea. In words: Eggplant grey mold. Format: in vivo. The note with it: inoculated 24 h later, rated after 3-4 days; for Disease Control Rating at 500 ppm: eggplant sprayed with 500 ppm; for Disease Control Rating at 20 ppm: eggplant sprayed with 20 ppm; for Disease Control Rating at 100 ppm: eggplant sprayed with 100 ppm. Also noted: scale not given here. The method in brief: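 Protective test: compound formulations (2:3 acetone:water, 0.5% Tween 20; 500, 100 or 20 ppm) sprayed on 14-18-day-old plants, with spore inoculum (4×10^6 spore/mL) applied a day later. Disease control rated on Botrytis lesions after 3-4 days at 23 °C and 100% humidity.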

[4] abbreviates: grape berries treated with 50 ppm, average of six berries, 7-10 days.
Where [5] appears, read: grape berries treated with 200 ppm, average of six berries, 7-10 days.

Like-named read-outs stand apart in the source and are kept apart here.

T1 sequence (A0A384J5E4 1-300): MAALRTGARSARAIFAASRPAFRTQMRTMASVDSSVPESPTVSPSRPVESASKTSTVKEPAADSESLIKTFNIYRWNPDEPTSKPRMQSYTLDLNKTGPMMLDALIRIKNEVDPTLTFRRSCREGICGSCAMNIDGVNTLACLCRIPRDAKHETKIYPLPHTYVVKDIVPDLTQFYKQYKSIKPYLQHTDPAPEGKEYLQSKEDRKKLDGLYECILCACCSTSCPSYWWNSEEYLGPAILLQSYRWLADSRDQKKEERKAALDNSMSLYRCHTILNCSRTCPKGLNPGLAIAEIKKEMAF
T1 sequence (A0A384J8V8 1-189): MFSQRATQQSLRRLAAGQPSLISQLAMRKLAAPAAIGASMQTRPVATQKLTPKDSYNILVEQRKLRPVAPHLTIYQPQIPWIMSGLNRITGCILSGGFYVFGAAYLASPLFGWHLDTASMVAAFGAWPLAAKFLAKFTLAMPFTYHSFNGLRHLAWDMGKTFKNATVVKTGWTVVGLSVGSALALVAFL
T1 sequence (A0A384JHJ5 1-192): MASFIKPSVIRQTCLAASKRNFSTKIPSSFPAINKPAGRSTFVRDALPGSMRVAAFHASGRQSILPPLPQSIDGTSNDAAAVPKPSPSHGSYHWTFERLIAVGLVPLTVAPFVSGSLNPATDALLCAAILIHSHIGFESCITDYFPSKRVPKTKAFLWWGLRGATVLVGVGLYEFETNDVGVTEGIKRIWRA
T1 sequence (A0A384K456 1-647 partner): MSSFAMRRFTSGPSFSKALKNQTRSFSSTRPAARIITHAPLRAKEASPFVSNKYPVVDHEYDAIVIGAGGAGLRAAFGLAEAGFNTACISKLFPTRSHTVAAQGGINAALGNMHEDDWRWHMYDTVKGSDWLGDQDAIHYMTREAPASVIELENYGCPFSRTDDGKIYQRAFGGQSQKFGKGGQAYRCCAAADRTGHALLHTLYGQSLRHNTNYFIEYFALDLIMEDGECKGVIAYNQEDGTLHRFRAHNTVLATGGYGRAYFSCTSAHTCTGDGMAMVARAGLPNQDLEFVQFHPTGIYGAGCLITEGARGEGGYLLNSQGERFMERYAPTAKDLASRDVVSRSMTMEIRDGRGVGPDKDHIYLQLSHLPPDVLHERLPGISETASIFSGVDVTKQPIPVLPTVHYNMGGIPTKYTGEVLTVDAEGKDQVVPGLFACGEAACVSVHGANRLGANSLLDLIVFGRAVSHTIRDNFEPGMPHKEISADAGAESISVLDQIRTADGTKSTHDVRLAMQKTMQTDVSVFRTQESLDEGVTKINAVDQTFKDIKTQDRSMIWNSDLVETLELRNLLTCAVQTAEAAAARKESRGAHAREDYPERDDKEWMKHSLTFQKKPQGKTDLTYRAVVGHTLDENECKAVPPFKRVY

As to `CC1=C(C(=O)Nc2ccccc2)SCCO1` [Carboxin, carboxin, reference compound], on succinate dehydrogenase, the IC50 came to 0.72 ± 0.3 µM. In the experiment on Rhizoctonia solani, the “Disease Control Rating at 0.02 mg/mL” value is given as 0, the “Disease Control Rating at 0.1 mg/mL” value amounted to 1 and the “Disease Control Rating at 0.5 mg/mL” value amounted to 3. For the same molecule, in the experiment with Botrytis cinerea [1], the pest or weed control at 50 ppm came out at 0% and the pest or weed control at 200 ppm stood at 0%. The “inhibition (respiratory inhibition)” value in experiment [2] was 68%. The “Disease Control Rating at 500 ppm” value with Botrytis cinerea [3] came to 0.
As to `CCC1CCCC(C)=C1c1ccccc1NC(=O)c1cn(C)nc1C(F)(F)F` (stereo not shown) [Example 138, 1H-pyrazole-4-carboxamide, N-[2-(6-ethyl-2-methyl-1-cyclohexen-1-yl)phenyl]-1-methyl-3-(trifluoromethyl)-], at succinate dehydrogenase, the IC50 worked out at 0.13 µM. Moreover, in the experiment with Rhizoctonia solani, the “Disease Control Rating at 0.5 mg/mL” value turned out to be 2. In addition, in the experiment with Botrytis cinerea [1] (setting [4]), the pest or weed control at 50 ppm turned out to be 0%. For the same molecule, the pest or weed control at 200 ppm with Botrytis cinerea [1] (setting [5]) was found to be 4%. For the same molecule, in the experiment with Botrytis cinerea [3], the “Disease Control Rating at 20 ppm” value is 0, the “Disease Control Rating at 100 ppm” value is 0 and the “Disease Control Rating at 500 ppm” value is given as 0.
For the molecule `Cn1cc(C(=O)Nc2ccccc2C2CC(C)(C)CC(C)(C)C2)c(C(F)(F)F)n1` [Example 139, 1H-pyrazole-4-carboxamide, 1-methyl-N-[2-(3,3,5,5-tetramethylcyclohexyl)phenyl]-3-(trifluoromethyl)-], the IC50 at succinate dehydrogenase stood at 0.032 µM. For the same molecule, in the experiment on Rhizoctonia solani, the “Disease Control Rating at 0.02 mg/mL” value stood at 2, the “Disease Control Rating at 0.1 mg/mL” value is 2 and the “Disease Control Rating at 0.5 mg/mL” value is listed as 3. Moreover, the pest or weed control at 50 ppm with Botrytis cinerea [1] (setting [4]) worked out at 2%. In addition, the pest or weed control at 200 ppm in the experiment on Botrytis cinerea [1] (setting [5]) was 1%. Further, in the experiment with Botrytis cinerea [3], the “Disease Control Rating at 20 ppm” value was 0, the “Disease Control Rating at 100 ppm” value stood at 0 and the “Disease Control Rating at 500 ppm” value worked out at 0.
Turning to `Cn1cc(C(=O)Nc2ccccc2C2CC(C)(C)CC(C)(C)C2)c(C(F)F)n1` [Example 140, 1H-pyrazole-4-carboxamide, 3-(difluoromethyl)-1-methyl-N-[2-(3,3,5,5-tetramethylcyclohexyl)-phenyl]-], the IC50 at succinate dehydrogenase came out at 0.039 µM. Also, in the experiment on Rhizoctonia solani, the “Disease Control Rating at 0.02 mg/mL” value is 0, the “Disease Control Rating at 0.1 mg/mL” value came out at 2 and the “Disease Control Rating at 0.5 mg/mL” value worked out at 3. In addition, the pest or weed control at 50 ppm with Botrytis cinerea [1] (setting [4]) was determined as 16%. In addition, the pest or weed control at 200 ppm with Botrytis cinerea [1] (setting [5]) was found to be 12%. Further, in the experiment on Botrytis cinerea [3], the “Disease Control Rating at 20 ppm” value stood at 0, the “Disease Control Rating at 100 ppm” value is reported as 1 and the “Disease Control Rating at 500 ppm” value was found to be 1.
`Cn1cc(C(=O)Nc2ccccc2C2=CCCCC2C(C)(C)C)c(C(F)(F)F)n1` (stereo not shown) [Example 141, 1H-pyrazole-4-carboxamide, N-[2-[6-(1,1-dimethylethyl)-1-cyclohexen-1-yl]phenyl]-1-methyl-3-(trifluoromethyl)-]: the IC50 at succinate dehydrogenase amounted to 0.049 µM. For the same molecule, in the experiment with Rhizoctonia solani, the “Disease Control Rating at 0.5 mg/mL” value was 3. The pest or weed control at 50 ppm with Botrytis cinerea [1] (setting [4]) is 12%. Further, in the experiment on Botrytis cinerea [1] (setting [5]), the pest or weed control at 200 ppm amounted to 12%. For the same molecule, in the experiment on Botrytis cinerea [3], the “Disease Control Rating at 20 ppm” value is on record as 0, the “Disease Control Rating at 100 ppm” value is given as 0 and the “Disease Control Rating at 500 ppm” value is on record as 1.
`Cn1cc(C(=O)Nc2ccccc2CC2CCCC2)c(C(F)(F)F)n1` [Example 142, 1H-pyrazole-4-carboxamide, N-[2-(cyclopentylmethyl)phenyl]-1-methyl-3-(trifluoromethyl)-]: the IC50 on succinate dehydrogenase worked out at 0.22 µM. For the same molecule, the “Disease Control Rating at 0.5 mg/mL” value in the experiment on Rhizoctonia solani is reported as 3. Further, the pest or weed control at 50 ppm with Botrytis cinerea [1] (setting [4]) came out at 0%. Besides, the pest or weed control at 200 ppm in the experiment with Botrytis cinerea [1] (setting [5]) is 18%. Besides, in the experiment on Botrytis cinerea [3], the “Disease Control Rating at 20 ppm” value amounted to 0, the “Disease Control Rating at 100 ppm” value is 1 and the “Disease Control Rating at 500 ppm” value came to 1.
On to `Cn1cc(C(=O)Nc2ccccc2C=C2CCCCCC2)c(C(F)(F)F)n1` [Example 143, 1H-pyrazole-4-carboxamide, N-[2-(cycloheptylidenemethyl)phenyl]-1-methyl-3-(trifluoromethyl)-], for which, on succinate dehydrogenase, the IC50 was determined as 0.025 µM. Moreover, the “Disease Control Rating at 0.5 mg/mL” value in the experiment on Rhizoctonia solani stood at 3. Besides, the pest or weed control at 50 ppm in the experiment with Botrytis cinerea [1] (setting [4]) turned out to be 33%. Moreover, the pest or weed control at 200 ppm in the experiment with Botrytis cinerea [1] (setting [5]) was 36%. In the experiment on Botrytis cinerea [3], the “Disease Control Rating at 20 ppm” value was 0, the “Disease Control Rating at 100 ppm” value was 0 and the “Disease Control Rating at 500 ppm” value is reported as 0.
`Cn1cc(C(=O)Nc2ccccc2C2=CCSCC2)c(C(F)F)n1` [Example 144, 1H-pyrazole-4-carboxamide, 3-(difluoromethyl)-N-[2-(5,6-dihydro-2H-thiopyran-4-yl)phenyl]-1-methyl-]: the IC50 on succinate dehydrogenase amounted to 0.037 µM. The “Disease Control Rating at 0.5 mg/mL” value in the experiment with Rhizoctonia solani is 3. The pest or weed control at 50 ppm with Botrytis cinerea [1] (setting [4]) is 15%. Further, the pest or weed control at 200 ppm in the experiment on Botrytis cinerea [1] (setting [5]) came out at 37%. Also, in the experiment with Botrytis cinerea [3], the “Disease Control Rating at 20 ppm” value was 0, the “Disease Control Rating at 100 ppm” value amounted to 0 and the “Disease Control Rating at 500 ppm” value was 1.
As to `Cn1cc(C(=O)Nc2ccccc2CC2CCCCCC2)c(C(F)F)n1` [Example 145, 1H-pyrazole-4-carboxamide, 1-methyl-N-[2-(cycloheptylmethyl)-phenyl]-3-(difluoromethyl)-], the IC50 on succinate dehydrogenase was 0.025 µM. Moreover, the “Disease Control Rating at 0.5 mg/mL” value in the experiment with Rhizoctonia solani is recorded as 3. Also, the pest or weed control at 50 ppm in the experiment on Botrytis cinerea [1] (setting [4]) turned out to be 0%. Also, the pest or weed control at 200 ppm in the experiment on Botrytis cinerea [1] (setting [5]) is 0%. Further, in the experiment on Botrytis cinerea [3], the “Disease Control Rating at 20 ppm” value turned out to be 0, the “Disease Control Rating at 100 ppm” value is given as 0 and the “Disease Control Rating at 500 ppm” value was determined as 0.
For `Cn1cc(C(=O)Nc2ccccc2CC2CCCCCC2)c(C(F)(F)F)n1` [Example 146, 1H-pyrazole-4-carboxamide, 1-methyl-N-[2-(cycloheptylmethyl)-phenyl]-3-(trifluoromethyl)-], the IC50 at succinate dehydrogenase stood at 0.053 µM. The “Disease Control Rating at 0.5 mg/mL” value in the experiment with Rhizoctonia solani was 1. Also, the pest or weed control at 50 ppm with Botrytis cinerea [1] (setting [4]) came out at 0%. For the same molecule, in the experiment on Botrytis cinerea [1] (setting [5]), the pest or weed control at 200 ppm amounted to 0%. Also, in the experiment on Botrytis cinerea [3], the “Disease Control Rating at 20 ppm” value is 0, the “Disease Control Rating at 100 ppm” value turned out to be 0 and the “Disease Control Rating at 500 ppm” value is listed as 1.
As to `Cn1cc(C(=O)Nc2ccccc2C=C2CCCCCC2)c(C(F)F)n1` [Example 147, 1H-pyrazole-4-carboxamide, N-[2-(cycloheptylidenemethyl)phenyl]-1-methyl-3-(difluoromethyl)-], the IC50 at succinate dehydrogenase worked out at 0.02 µM. Besides, the “Disease Control Rating at 0.5 mg/mL” value with Rhizoctonia solani is 2. Besides, the pest or weed control at 50 ppm with Botrytis cinerea [1] (setting [4]) is 0%. For the same molecule, the pest or weed control at 200 ppm with Botrytis cinerea [1] (setting [5]) was 0%. In the experiment with Botrytis cinerea [3], the “Disease Control Rating at 20 ppm” value stood at 0, the “Disease Control Rating at 100 ppm” value worked out at 0 and the “Disease Control Rating at 500 ppm” value was 0.
On to `CC1C=C(c2ccccc2NC(=O)c2cn(C)nc2C(F)(F)F)CC1` (stereo not shown) [Example 148, 1H-pyrazole-4-carboxamide, N-[2-(3-methyl-1-cyclopenten-1-yl)phenyl]-1-methyl-3-(trifluoromethyl)-], for which, at succinate dehydrogenase, the IC50 is 0.027 µM. For the same molecule, the “Disease Control Rating at 0.5 mg/mL” value in the experiment on Rhizoctonia solani amounted to 3. In the experiment with Botrytis cinerea [1] (setting [4]), the pest or weed control at 50 ppm was found to be 37%. Also, the pest or weed control at 200 ppm in the experiment with Botrytis cinerea [1] (setting [5]) turned out to be 99%. For the same molecule, in the experiment on Botrytis cinerea [3], the “Disease Control Rating at 20 ppm” value is 0, the “Disease Control Rating at 100 ppm” value is on record as 2 and the “Disease Control Rating at 500 ppm” value is given as 2.
In the case of `CC1CC=C(c2ccccc2NC(=O)c2cn(C)nc2C(F)F)C1` (stereo not shown) [Example 149, 1H-pyrazole-4-carboxamide, N-[2-(4-methyl-1-cyclopenten-1-yl)phenyl]-1-methyl-3-(difluoromethyl)-], the IC50 on succinate dehydrogenase was determined as 0.013 µM. Besides, the “Disease Control Rating at 0.5 mg/mL” value with Rhizoctonia solani was 3. The pest or weed control at 50 ppm with Botrytis cinerea [1] (setting [4]) is 95%. In the experiment on Botrytis cinerea [1] (setting [5]), the pest or weed control at 200 ppm was 100%. Further, in the experiment on Botrytis cinerea [3], the “Disease Control Rating at 20 ppm” value came out at 0, the “Disease Control Rating at 100 ppm” value is listed as 0 and the “Disease Control Rating at 500 ppm” value is on record as 1.
As to `CC1CC=C(c2ccccc2NC(=O)c2cn(C)nc2C(F)(F)F)C1` (stereo not shown) [Example 150, 1H-pyrazole-4-carboxamide, N-[2-(4-methyl-1-cyclopenten-1-yl)phenyl]-1-methyl-3-(trifluoromethyl)-], at succinate dehydrogenase, the IC50 is 0.026 µM. Further, the “Disease Control Rating at 0.5 mg/mL” value in the experiment on Rhizoctonia solani is listed as 3. Besides, in the experiment on Botrytis cinerea [1] (setting [4]), the pest or weed control at 50 ppm was 40%. Further, in the experiment with Botrytis cinerea [1] (setting [5]), the pest or weed control at 200 ppm came out at 100%. Moreover, in the experiment on Botrytis cinerea [3], the “Disease Control Rating at 20 ppm” value amounted to 0, the “Disease Control Rating at 100 ppm” value was 0 and the “Disease Control Rating at 500 ppm” value was 2.

The values above are taken from patent US5223526A, “Pyrazole carboxanilide fungicides and use” (Monsanto Company, priority 1992, dated 1993).
